Laboratory results as given in US20260285815A1, “Imidazolidinyl Vanillic Acid Ether Derivative and Use Thereof” (priority 2022, published 2026).
Read-outs that look alike come from different tables or passages of the source.

Columns and labels:
in vivo = assay: in vivo; design: species or system SD rats; conditions: rat, po, 15 mg/kg
Procedure: Eighteen SD male rats (purchased from Weitong Lihua Experimental Animal Technology Co., Ltd., certificate number: 20211103Aazz0619000910), weighing 240-280 g, were randomly divided into 6 groups, with 3 rats in each group. The animals were fasted overnight before administration. On the day of administration, the compounds of Examples 3, 4, 5, 6, Compound A. and Compound A methyl ester were gavaged to the animals in each groups respectively, and the dosage was 15 mg/kg (calculated as Compound A). Before administration and 0.25, 0.5, 1, 2, 4, 6, 8, and 24 h after administration, 0.15 mL of blood was collected from the animals through the jugular sinus and placed in an EDTA-K2 anticoagulant tube containing 3 μL of dichlorvos aqueous solution (10 mg/mL). After centrifugation, plasma was collected, and was placed in the sample, and then 10 μL of plasma sample was taken, 500 μL of acetonitrile containing IS (verapamil 5 ng·mL^−1, glibenclamide 50 ng·mL^−1, tolbutamide 200 ng·mL^−1, and diclofenac 200 ng·mL^−1) was added, vortexed for 10 min, and then centrifuged at 3700 rpm for 10 min, and then 70 μL of supernatant and 70 μL of water were added, and vortexed for 10 min. An aliquot of 2 μL of the mixture was injected into the LC-MS/MS system (Triple Quad 5500+: LC-MS-MS-022) to measure blood concentration of the compounds. WinNonlin 8.0 software was used to analyze the pharmacokinetic parameters.

[1] = test system: adenosine diphosphate (ADP)-induced platelet aggregation; conditions: rabbit; from CN101851209B; cited from earlier work
[2] = background statement; cited from earlier work
[3] = background statement; cited from earlier work; remark: listed apart in the source
[4] = test system: arteriovenous bypass thrombi in rats; assay: Antithrombotic activity in vivo: arteriovenous bypass thrombosis in rats; conditions: for inhibition at 15 mg/kg: Rattus norvegicus, po
Procedure: Each group was given corresponding drugs by gavage (dosage was 15 mg/kg), and the normal control group was given an equal volume of solvent, all of which were given by single gavage. One hour after the last administration, the rats were anesthetized with 3% chloral hydrate intraperitoneally, and the right common carotid artery and left external jugular vein were isolated in a supine position. A polyethylene tube was taken with an inner diameter of 1.5 mm and a length of 10 cm, a 6 cm long silk thread (pre-weighed) was inserted into it, and the polyethylene tube was filled with normal saline solution of heparin (50 U/ml). One end of the polyethylene tube was inserted into the left external jugular vein, heparin (50 U/kg) was injected, and the other end was inserted into the right common carotid artery. After blood flow was opened for 15 minutes, the blood flow was interrupted and the silk thread was quickly taken out and weighed. The total weight minus the original silk thread weight was the wet weight of the thrombus. The silk thread was placed in an oven for drying at 70° C. The dry weight of the thrombus was obtained by weighing the silk thread minus the original silk thread weight, and the inhibition rate was calculated.

Row | Compound | AUC(0-inf) (in vivo) [ng·h/mL] | AUC(0-t) (in vivo) [ng·h/mL] | Cmax (in vivo) [ng/mL] | F (bioavailability relative to compound A) (in vivo) [%] | MRT last (in vivo) [h] | Tmax (in vivo) [h] | half-life (in vivo) [h] | Inhibitory effect on ADP-induced platelet aggregation [1] | Oral bioavailability [2] | Ability to penetrate the blood-brain barrier [3] | inhibition at 15 mg/kg ([4]; read-out: Inhibition rate (thrombus dry weight)) [%] | inhibition at 15 mg/kg ([4]; read-out: Inhibition rate (thrombus wet weight)) [%] | Thrombus wet weight ([4]; rat arteriovenous bypass, 15 mg/kg single gavage, 1 h after dosing, 15 min blood flow, x ± s, n = 8) | Thrombus dry weight ([4]; rat arteriovenous bypass, 15 mg/kg single gavage, thread dried at 70° C., x ± s, n = 8)
1 | COC(=O)c1ccc(OCCn2ccnc2)c(OC)c1 [Compound A methyl ester, reference compound] | 1600 | 1490 | 513 | 92.18 | 6.5 | 0.46 | 8.4 | – | – | – | – | – | – | –
2 | COc1cc(C(=O)O)ccc1OCCn1ccnc1 [Compound A, reference compound] | 1720 | 1610 | 604 | – | 5.4 | 0.35 | 10.7 | significant inhibitory effect | low | weak | 36 | 31 | 69.8 ± 11.2^★★ mg | 21.8 ± 6.0^★★ mg
3 | COc1cc(C(=O)OC(C)OC(C)=O)ccc1OCCn1ccnc1 (centres unmarked) [Example 6, 1-acetoxyethyl-4-(2-(1H-imidazol-1-yl)ethoxy)-3-methoxybenzoate] | 3170 | 2850 | 8140 | 176.8 | 1.09 | 0.25 | 4.86 | – | – | – | – | – | – | –

Now from value to compound, other results behind:

Row | AUC(0-inf) (in vivo) [ng·h/mL] | AUC(0-t) (in vivo) [ng·h/mL] | Cmax (in vivo) [ng/mL] | F (bioavailability relative to compound A) (in vivo) [%] | MRT last (in vivo) [h] | Tmax (in vivo) [h] | half-life (in vivo) [h] | Compound | Inhibitory effect on ADP-induced platelet aggregation [1] | Oral bioavailability [2] | Ability to penetrate the blood-brain barrier [3] | inhibition at 15 mg/kg ([4]; read-out: Inhibition rate (thrombus dry weight)) [%] | inhibition at 15 mg/kg ([4]; read-out: Inhibition rate (thrombus wet weight)) [%] | Thrombus wet weight ([4]; rat arteriovenous bypass, 15 mg/kg single gavage, 1 h after dosing, 15 min blood flow, x ± s, n = 8) | Thrombus dry weight ([4]; rat arteriovenous bypass, 15 mg/kg single gavage, thread dried at 70° C., x ± s, n = 8)
4 | 3380 | 3230 | 8590 | 200.37 | 0.47 | 0.25 | 3.06 | COc1cc(C(=O)OCCCCCC(=O)O)ccc1OCCn1ccnc1 [Example 3, 6-(4-(2-(1H-imidazol-1-yl)ethoxy)-3-methoxybenzoyloxy)hexanoic acid] | – | – | – | – | – | – | –
5 | 3000 | 2890 | 7080 | 179.28 | 0.85 | 0.25 | 3.43 | COc1cc(C(=O)OCOC(=O)OC(C)C)ccc1OCCn1ccnc1 [Example 5, ((isopropoxycarbonyl)oxy)methyl-4-(2-(1H-imidazol-1-yl)ethoxy)-3-methoxybenzoate] | – | – | – | – | – | – | –
